Measurements taken from patent US9856480B2, “Dnazyme for silencing the expression of EGFR” (DCB-USA LLC, priority 2013, dated 2018).
Strand notation (5' to 3'): a small letter for the sugar, then the base; units joined by * are phosphorothioate-linked, units joined directly phosphodiester-linked; [ ] holds rarer units or linkages, { } end groups; capitals alone tell only the bases. d = 2'-deoxy (DNA)

Columns and labels:
Assay type in all cases: cell-based, human
CL97 cells (EGFR T790M) = experiment: Cell proliferation assay (cell counting); conditions: 100 nM, 0-72 h after transfection
Procedure: (§1) A549, CL1-5, H1975, or CL97 was seeded onto 6-well and cultured overnight. Then, cells were separately treated with 100 nM DzControl or DzT790M-1 with lipofectamine 2000 (Invitrogen). Cells were trypsinized and counted at 0 h, 24 h, 48 h, or 72 h after transfection.
(§2) EGFR and downstream signaling pathway regulates important cell functions including cell proliferation and survival. In order to examine functional effects of DzT790M-1 on cell survival, the number of cells was counted after DzControl or DzT790M-1 transfection respectively. In A549 and CL1-5 cells (EGFR wild-type), the rate of cell proliferation or the cell number was not different between DzControl and DzT790M-1 transfected group (FIGS. 4A and 4B). In H1975 and CL97 cells (EGFR T790M), DzControl transfected cells were continued to grow after transfection when the number of DzT790M-1 treated cells was reduced (FIGS. 4C and 4D). In order to figure out whether DzT790M-1 treated cells undergoes cell apoptosis, immunoblotting against cleaved form of PARP and immunostaining of annexin V and PI were performed. The cleavage of PARP is caused by increased activity of caspase-3 and serves as a marker for cell apoptosis. […] While only 3.6% of cells underwent apoptosis and 12.4% of cells were dead in DzControl transfected H1975 cells, 18.6% of cells were detected as apoptotic cells and 32.6% of cells were annexin V and PI double positive in DzT790M-1 treated group (FIG. 4F).

[1] = system: A549 cells (EGFR wild-type); experiment: Cell proliferation assay (cell counting); conditions: 100 nM, 0-72 h after transfection
Procedure: as §1, §2

H1975 cells (EGFR T790M) [2] = experiment: Cell proliferation assay (cell counting); conditions: 100 nM, 0-72 h after transfection
Procedure: as §1, §2

[3] = system: CL1-5 cells (EGFR wild-type); experiment: Cell proliferation assay (cell counting); conditions: 100 nM, 0-72 h after transfection
Procedure: as §1, §2

H1975 cells (EGFR T790M) [4] = experiment: Cell viability assay (MTT); conditions: 100 nM by lipofectamine transfection, 72 h
wild-type EGFR mRNA [5] = experiment: Real-time PCR of EGFR mRNA knockdown; conditions: 100 nM with lipofectamine 2000, 48 h
Procedure: (§3) A549, CL1-5, H1975, or CL97 was seeded onto 6-well at 3×10^5 cells/well and cultured overnight. Then, cells were separately treated with 100 nM DzControl or DzT790M-1 with lipofectamine 2000 (Invitrogen). After 48 h, total mRNA were extracted from DNAzyme-treated cells by Mestrisol following manufacturer's protocol. cDNA were synthesized by using RT III kit with random hexamers as primers (Invitrogen). The PCR primers were synthesized by Genomics BioSci & Tech (Taipei, Taiwan). The sequences of PCR primers are listed as follows: […]
(§4) The parameters for PCR were: 95° C. for 10 min, then 25 cycles of PCR at 95° C. for 30 s, 60° C. for 30 s, and 72° C. for 60 s. 3% agarose gels were used for electrophoresis of PCR products. The intensity of bands were quantified by Image J. Quantitative RT-PCR was performed on 40 ng total mRNA with the LightCycler 480 system (Roche). The PCR mix contained 5 μl of 2× Probe Master mix, 100 nM of UPL probe (Roche Diagnostics, Penzberg, Germany), 200 nM of forward primer and reverse primer, 0.1 ul RNAseout (Invitrogen), and 0.025 ul RTIII enzyme (Invitrogen) in a total volume of 10 μl. PCR parameters were as follows: 50° C. for 40 min, then 45 cycles of PCR at 95° C. for 10 s, 60° C. for 10 s, and 72° C. for 2 s. Data were analyzed by LC480 software (Roche Diagnostics, Penzberg, Germany). The relative amount of EGFR mRNA was normalized to ACTB mRNA. The sequences of PCR primers are as follows: […]
(§5) To examine the allele selectivity of DzT790M-1, EGFR mRNA knockdown efficiency was detected in two cell lines harboring wild-type EGFR (A549, CL1-5) and two cell lines containing EGFR T790M mutation (H1975, CL97). A549, CL1-5, H1975, or CL97 was seeded onto 6-well at 3×10^5 cells/well and cultured overnight. Then, cells were separately treated with 100 nM DzControl or DzT790M-1 with lipofectamine 2000 (Invitrogen). After 48 h, total mRNA was extracted. […] DzT790M-1 knocked down 68.2% and 77.4% T790M EGFR mRNA expression in H1975 and CL97 cells respectively. In contrast, in A549 and CL1-5 cells, only 1.1% and 19.2% wild-type EGFR mRNA expression was affected.

T790M EGFR mRNA [6] = experiment: Real-time PCR of EGFR mRNA knockdown; conditions: 100 nM with lipofectamine 2000, 48 h
Procedure: as §3, §4, §5

T790M EGFR mRNA [7] = experiment: Quantitative real-time PCR of EGFR mRNA knockdown; conditions: for T790M EGFR mRNA expression knocked down (quantitative real-time PCR): 100 nM, 48 h
Procedure: as §3, §4, §5

wild-type EGFR mRNA [8] = experiment: Quantitative real-time PCR of EGFR mRNA knockdown; conditions: 100 nM, 48 h
Procedure: as §3, §4
To examine the allele selectivity of DzT790M-1, EGFR mRNA knockdown efficiency was detected in two cell lines harboring wild-type EGFR (A549, CL1-5) and two cell lines containing EGFR T790M mutation (H1975, CL97). A549, CL1-5, H1975, or CL97 was seeded onto 6-well at 3×10^5 cells/well and cultured overnight. […]
Then, A549 and PC9 cells were separately treated with 50, 100, or 150 nM control DNAzyme or DzEGFR—ΔE746-A750 with Lipofectamine 2000 for 48 h. […] Quantitative RT-PCR was performed on 40 ng total mRNA with the LightCycler 480 system (Roche). […] Data were analyzed by LC480 software (Roche Diagnostics). […]

DzT790M-1: 10-23 DNAzyme against EGFR T790M mRNA, arms 10/4, phosphorothioate ends: AGCTGCATGAGGCTAGCTACAACGAGAGC (DNA dA*dGdCdTdGdCdAdTdGdAdGdGdCdTdAdGdCdTdAdCdAdAdCdGdAdGdAdG*dC; further chemistry not fully specified)
number of cells after transfection (CL97 cells (EGFR T790M)): reduced | rate of cell proliferation or cell number vs DzControl transfected group [1]: not different | number of cells after transfection (H1975 cells (EGFR T790M) [2]): reduced | rate of cell proliferation or cell number vs DzControl transfected group [3]: not different | anti-proliferation effect (H1975 cells (EGFR T790M) [4]): 50% | remained EGFR mRNA expression (real-time PCR) (wild-type EGFR mRNA [5]; A549 cells): 121% | remained EGFR mRNA expression (real-time PCR) (wild-type EGFR mRNA [5]; CL1-5 cells): 95% | remained EGFR mRNA expression (real-time PCR) (T790M EGFR mRNA [6]; CL97 cells): 54% | remained EGFR mRNA expression (real-time PCR) (T790M EGFR mRNA [6]; H1975 cells): 32% | T790M EGFR mRNA expression knocked down (quantitative real-time PCR) (T790M EGFR mRNA [7]; CL97 cells): 77.4% | T790M EGFR mRNA expression knocked down (quantitative real-time PCR) (T790M EGFR mRNA [7]; H1975 cells): 68.2% | increased knockdown efficiency toward T790M EGFR mRNA over wild-type counterpart (T790M EGFR mRNA [7]; quantitative real-time PCR, H1975, CL97 vs A549, CL1-5): at least 3.5 fold | wild-type EGFR mRNA knockdown (wild-type EGFR mRNA [8]; A549 cells): 1.1% | wild-type EGFR mRNA knockdown (wild-type EGFR mRNA [8]; CL1-5 cells): 19.2%
